Experimental data from patent publication US20240241137A1, “METHOD FOR SELECTING A DRUG CANDIDATE FOR TREATING OR PREVENTING OR DELAYING THE ONSET OR PROGRESSION OF AN AMYLOIDOGENIC DISEASE” (NATIONAL HEALTH RESEARCH INSTITUTES, priority 2022, published 2024).
Entries after “also recorded” stand apart in the source; their conditions may differ. Structures can show the parent of a compound that is named as a salt. Each block holds one compound with its values, some of them ahead of it.

Experiments:
LPS-Aβ42 complex = LPS-Aβ42 complex (Homo sapiens, UniProt P05067); test: Real-time mass-sensitive measurement (QCM-D) of the non-equilibrium oscillation between LPS and Aβ42; assay type: binding; details: for effect on the oscillatory event (lifetime) of the LPS-Aβ42 complex: bait in combination with LPS, Aβ42 100 μM, baits 20 μM; for time (apparent lifetime of the non-equilibrium interaction): mass dropping from 80% to 20%
Description: The lifetime of each sample was indicated in colored lines.
A real-time mass-sensitive measurement strategy involving quartz crystal microbalance with dissipation explorer (QCM-D) and single-channel module (Q-Sense, Biolin Scientific, Vastra Frölunda, Sweden) was used to evaluate the non-equilibrium interaction between Aβ42 and two baits (LPS and natural compounds). In addition, the steady-state circular dichroism and fluorescence spectra upon excitation of tryptophan at different temperatures were recorded to reveal the secondary structures of Aβ42 in the presence and absence of LPS. The fluorescent T jump system was utilized to confirm the adsorbing capability of LPS to Aβ42 by reading the corresponding protein dynamics. The detailed methods and materials are described as follows.
Preparation of the first bait: A solution of 0.1 mM MCL-NHS and LPS at a ratio of 1:1 was mixed in DI water. The mixture was cooled at 25° C. overnight (please refer to linker modification in the following), which spontaneously allowed the conjugation of the amine group of LPS and NHS-activated carboxylic acid of MCL. Owing to the structural complexity, it was difficult to validate the amide bond formation between MCL-NHS and LPS via NMR identification (FIG. 1). Nevertheless, the supramolecular host-guest recognition between LPS and colistin (a cyclic peptide) was used to identify the existence of MCL-modified LPS (first bait). The details of the mass-sensitive measurement are described in the next section.
Linker modification: The conjugation of the first bait (LPS) and linker (3-mercaptopanyl-n-hydroxysuccinimide ester) was mixed together for overnight reaction before anchoring on the gold sensor. The linker may be linked to one or two —NH2 groups in the core oligosaccharide part of LPS.
Real-time mass-sensitive measurement: Quartz crystal microbalance with dissipation explorer (QCM-D) and single-channel module (Q-Sense™, BIOLIN SCIENTIFIC®, Vastra Fralunda, Sweden) was used to evaluate the non-equilibrium interaction between Aβ42 and two baits (LPS and natural compounds). Prior to use, the new and reused gold sensors (a circle shape with a diameter of 1.0 cm, Q-Sense Sensors™, BIOLIN SCIENTIFIC®) were precleaned using a UV/ozone cleaner and piranha solution, which was a mixture of 30% H2O2 and concentrated H2SO4 at 1:3 (v/v). This piranha solution reacts violently with organic materials and should be handled with great care and protection. After washing of the gold sensors with LPS-free DI water, the first bait was initially inputted in a flow model at a flow rate of 0.15 mL/min under 25° C., which could be immediately anchored on a clean gold sensor. We conducted all measurements by switching between the continuous flowing model (CFM) and flowing-to-soaking model (FSM) after washing; the CFM maintained the same flow rate (0.15 mL/min), and the FSM allowed the flow velocity to slow down or completely stop. A sampling interval of 0.3 s was used to collect each frequency readout at seven overtones […], while the quartz crystal resonator of the QCN-D system settled at a fundamental resonant frequency (5 MHz). The Q-Sense system was utilized in addition to the following Sauerbrey equation to obtain the third overtone (n=3) and calculate the mass change after measurement.
where Δm is the change in the adsorbed mass of molecules; Δf is the time-responded frequency observed at the third overtone; and C is a constant that is equal to 17.7 ng/cm^2 at the resonance frequency of the quartz oscillator (5 MHz). The equation (Eq. S1) allows a direct quantitative study for mass comparison.
Operation of a real-time sensing platform: To perform the measurements, the LPS-free DI water and other solvents were allowed to continuously flow for about 1 h at 25° C. or until the baseline of two parameters (frequency and dissipation of QCM-D) reached an equilibrium state before sample operation and data collection. […]

SH—SY5Y neuronal cells = test: Cell viability (CCK8) of Aβ42-treated neuronal cells; details: for rescue of Aβ42-induced cell death by small baits alone: without co-treatment with LPS; for rescue effect of Aβ42-induced cell apoptosis: co-treatment with low dose (10 nM) LPS, bait 1, 10, 50, 100 μM, versus LPS alone
Description: Cell viability: Neuronal cells were maintained in MEM (GIBCO® 51200-038) supplemented with 10% FBS, 1×MEM NEAA (GIBCO® 11140-050), 1×L-glutamine (GIBCO® 25030-081), and 1×sodium pyruvate (GIBCO® 1136-070). Neuronal SH—SY5Y cells were plated at a density of 8,000 cells per well in 96-well plates and allowed to attach overnight at 37° C. in 5% CO2 humidified air. Aβ42 (100 μM), LPS (10 nM), CS (100 μM), EG (100 PM), and morin (100 μM) were then added to each medium containing 2.5% dimethyl sulfoxide and sterilized using UV light. Thereafter, the solution containing Aβ42 and LPS was mixed with CS, EG, or morin at different concentrations ranging from 1 to 100 μM and added into the plate of the SH—SY5Y cells. The medium was then replaced, and the remaining mixture was incubated for 72 h at 37° C. in 5% CO2 humidified air. Cell viability was measured using the CCK8 (SIGMA-ALDRICH® 96992) assay according to the manufacturer's protocol. Before the Aβ42 treatment of Neuronal SH—SY5Y cells, a 30 k filter was used to remove unbound LPS from the LPS-insulted Aβ42 mixture.

SH—SY5Y cells = test: Western blot of residual Aβ42 levels (clearance of Aβ42 by neuronal cells); assay type: cell-based; details: co-treatment with low-dose LPS, 72 h
Description: The cell mixture samples were analyzed via 12% SDS-PAGE gel electrophoresis and transferred to a PVDF membrane. […] After hybridization with the primary antibody, the membrane was washed thrice with PBST before the addition of an HRP-conjugated secondary antibody against the primary antibody. The membrane was then washed thrice with PBST before immunoreactive bands were detected by UVP ChemStudio touch ([…] JENA®). The primary antibodies used in this study included the following: anti-Aβ (6E10, BIOLEGEND® 803001), anti-actin ([…]®), and anti-GAPDH (GTX100118). Signal intensity was analyzed using VisionWorks 9.1 and statistically analyzed using GraphPad Prism 9.

Aβ42 [1] = biological target: T1, Aβ42 (Homo sapiens, UniProt P05067); test: Circular dichroism of Aβ42 and LPS-Aβ42; details: Aβ42 96 μM, LPS 160 nM, 25° C.
Description: Circular dichroism (CD): Approximately 300 μL of (96 μM) and mixtures of Aβ42 (96 μM) and LPS (160 nM) were loaded into a quartz cuvette of an optical length of 1 mm (110-1-40, HELLMA ANALYTICS®) and measured using a spectrometer equipped with a thermostat (Model 410, AVIV BIOMEDICAL®, Inc.) in 190-260 nm at 25° C. with a spectral resolution of 1 nm.

Aβ42 [2] = biological target: T1, Aβ42; test: Fluorescent T jump protein dynamics of Aβ42 and LPS-Aβ42; details: two-state model analysis upon T jump
Description: A fluorescent T jump system was constructed on the basis of a previous report (Yang, C. T., Chu, L. K. Phys. Chem. Chem. Phys. 2022, 24, 11079-11085), with slight modification. The aqueous solutions were sandwiched by two quartz windows (diameter=25 mm, thickness=2 mm, #14-962, EDMUND OPTICS®) separated by a drilled Teflon spacer of a thickness of 0.8 mm. The diameter of the hole in the center was 2.0 mm. The circular infrared beam, which was used to heat up water to increase the temperature, from a continuous-wave diode laser at 1550 nm was focused with two convex lenses (f=100.0 mm; f=75.6 mm) to a diameter of 1.6 mm before entering the sample cell. […] The fluorescence was collected using a MicroSpot Focusing Objective (LMU-20X-NUV, THORLABS®, 325-500 nm) and later focused through a 200 μm pinhole by a lens (f=50.0 mm) to an optical fiber (300-1,200 nm). Thereafter, the collected fluorescence light was introduced to a photomultiplier tube and filtered using an optical filter to define the detection range at 300-445 nm. The voltage signal from the photomultiplier was amplified by a factor of 20 using a voltage pre-amplifier, and further recorded using an oscilloscope.
The photobleaching-induced fluorescence decrease should be considered in the evolution of the fluorescence intensity change of Aβ42 and LPS-A342 upon T jump. […]

Chain of LPS-Aβ42 complex (P05067 672-713 limits assumed, one chain of several): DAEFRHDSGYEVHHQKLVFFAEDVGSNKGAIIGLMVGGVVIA
T1 sequence (P05067 672-713 limits assumed): as the sequence (P05067 672-713 limits assumed, one chain of several) above

Compound: O=C(O[C@@H]1Cc2c(O)cc(O)cc2O[C@@H]1c1cc(O)c(O)c(O)c1)c1cc(O)c(O)c(O)c1 [EG, epigallocatechin gallate]
effect on the oscillatory event (lifetime) of the LPS-Aβ42 complex (LPS-Aβ42 complex): did not perturb the oscillatory event
rescue of Aβ42-induced cell death by small baits alone (SH—SY5Y neuronal cells; Aβ42 100 μM): could not alleviate Aβ42-induced cell death
residual Aβ42 levels from the total lysate (SH—SY5Y cells): not observed; also recorded: no impact on the degradation of Aβ42

effect on the oscillatory event (lifetime) of the LPS-Aβ42 complex (LPS-Aβ42 complex): did not perturb the oscillatory event
Compound: COc1cc(/C=C/C(=O)CC(=O)/C=C/c2ccc(O)c(OC)c2)ccc1O [curcumin]

ln(γ) (LPS-Aβ42 complex; [morin] 20 nM): 2.75
Δt = tw/morin − tw/o morin (LPS-Aβ42 complex; [morin] 20 nM): 63 s
γ (lifetime increment percentage) (LPS-Aβ42 complex; [morin] 20 nM): 15.7%
time (apparent lifetime of the non-equilibrium interaction) (LPS-Aβ42 complex; [morin] 20 nM): 465 s
ln(γ) (LPS-Aβ42 complex; [morin] 50 nM): 3.47
Δt = tw/morin − tw/o morin (LPS-Aβ42 complex; [morin] 50 nM): 129 s
γ (lifetime increment percentage) (LPS-Aβ42 complex; [morin] 50 nM): 32.1%
time (apparent lifetime of the non-equilibrium interaction) (LPS-Aβ42 complex; [morin] 50 nM): 531 s
ln(γ) (LPS-Aβ42 complex; [morin] 100 nM): 4.22
Δt = tw/morin − tw/o morin (LPS-Aβ42 complex; [morin] 100 nM): 275 s
γ (lifetime increment percentage) (LPS-Aβ42 complex; [morin] 100 nM): 68.4%
time (apparent lifetime of the non-equilibrium interaction) (LPS-Aβ42 complex; [morin] 100 nM): 677 s
ln(γ) (LPS-Aβ42 complex; [morin] 200 nM): 4.42
Δt = tw/morin − tw/o morin (LPS-Aβ42 complex; [morin] 200 nM): 335 s
γ (lifetime increment percentage) (LPS-Aβ42 complex; [morin] 200 nM): 83.3%
time (apparent lifetime of the non-equilibrium interaction) (LPS-Aβ42 complex; [morin] 200 nM): 737 s
n, power to which bait concentration is taken (slope of ln(γ) versus ln([morin])) (LPS-Aβ42 complex; linear regression of Table S1 data): 0.76±0.10
Compound: O=c1c(O)c(-c2ccc(O)cc2O)oc2cc(O)cc(O)c12 [morin]
effect on the oscillatory event (lifetime) of the LPS-Aβ42 complex (LPS-Aβ42 complex): extended; also recorded: significant prolongation; also recorded: significant time extension; also recorded: prolonged in a dose-dependent manner
rescue effect of Aβ42-induced cell apoptosis (SH—SY5Y neuronal cells; Aβ42 100 μM): in a dose-dependent manner; also recorded: could be observed
rescue of Aβ42-induced cell death by small baits alone (SH—SY5Y neuronal cells; Aβ42 100 μM): could not alleviate Aβ42-induced cell death
residual Aβ42 levels from the total lysate (SH—SY5Y cells): significantly decreased; also recorded: dose-dependent depletion of Aβ42

effect on the oscillatory event (lifetime) of the LPS-Aβ42 complex (LPS-Aβ42 complex): did not perturb the oscillatory event
Compound: O=c1c(O)c(-c2cc(O)c(O)c(O)c2)oc2cc(O)cc(O)c12 [myricetin]

effect on the oscillatory event (lifetime) of the LPS-Aβ42 complex (LPS-Aβ42 complex): did not perturb the oscillatory event
Compound: CCN(CC)CCCC(C)Nc1c2ccc(Cl)cc2nc2ccc(OC)cc12 (centres unmarked) [quinacrine dihydrochloride]

effect on the oscillatory event (lifetime) of the LPS-Aβ42 complex (LPS-Aβ42 complex): did not perturb the oscillatory event
Compound: O=C(/C=C/c1ccc(O)c(O)c1)O[C@H](Cc1ccc(O)c(O)c1)C(=O)O [rosmarinic acid]

effect on the oscillatory event (lifetime) of the LPS-Aβ42 complex (LPS-Aβ42 complex): did not perturb the oscillatory event
Compound: O=C(OC[C@H]1O[C@@H](OC(=O)c2cc(O)c(O)c(OC(=O)c3cc(O)c(O)c(O)c3)c2)[C@H](OC(=O)c2cc(O)c(O)c(OC(=O)c3cc(O)c(O)c(O)c3)c2)[C@@H](OC(=O)c2cc(O)c(O)c(OC(=O)c3cc(O)c(O)c(O)c3)c2)[C@@H]1OC(=O)c1cc(O)c(O)c(OC(=O)c2cc(O)c(O)c(O)c2)c1)c1cc(O)c(O)c(OC(=O)c2cc(O)c(O)c(O)c2)c1 [tannic acid]

Compound: Lipopolysaccharide [LPS]
lifetime of mass oscillation (LPS-Aβ42 complex; LPS anchored on sensor, Aβ42, FSM, no bait): less than 30 min
effect on secondary structure of Aβ42 (CD spectra) (Aβ42 [1]): does not initiate the unfolding of the secondary structure of Aβ42
effect on thermally induced protein dynamics of Aβ42 (Aβ42 [2]): retarded the upward response
cell viability (SH—SY5Y neuronal cells; LPS of Aβ42 solution removed): less than 10%
viability of neuronal cells in medium containing Aβ42 (SH—SY5Y neuronal cells; high dose (1000 nM) of LPS, Aβ42 100 μM): 100%

Compound: chondroitin sulfate sodium [CS]
effect on the oscillatory event (lifetime) of the LPS-Aβ42 complex (LPS-Aβ42 complex): shortened the binding event; also recorded: shortening
rescue effect of Aβ42-induced cell apoptosis (SH—SY5Y neuronal cells; Aβ42 100 μM): not observed
rescue of Aβ42-induced cell death by small baits alone (SH—SY5Y neuronal cells; Aβ42 100 μM): could not alleviate Aβ42-induced cell death
residual Aβ42 levels from the total lysate (SH—SY5Y cells): not observed; also recorded: no impact on the degradation of Aβ42
